Test results taken from US12376538B2, “Rice cultivar designated ‘CLL17’” (Board of Supervisors of Louisiana State University and …, priority 2020, dated 2025).

Tested on: ‘CLL17’ rice plant
Assay: Herbicide tolerance and susceptibility of 'CLL17' rice plants
Type: in vivo
Conditions: at levels of the herbicide that would normally inhibit the growth of a rice plant
Description: The variety is resistant to imidazolinone herbicides. The herbicide resistance (or herbicide tolerance) profile is essentially the same as that of ‘CL161’ through common ancestry. The herbicide tolerance allows ‘CLL17,’ its hybrids, and derived varieties to be used with certain imidazolinone or sulfonylurea herbicides, including among others the imidazolinone herbicides imazethapyr and imazamox, for the selective control of weeds including red rice. See generally U.S. Pat. No. 6,943,280.
Among others, the herbicide tolerance and susceptibility characteristics of ‘CLL17’ include or are expected to include the following.

Row | Compound | herbicide tolerance / susceptibility of ‘CLL17’ (resistant or sensitive)
1 | COCc1cnc(C2=NC(C)(C(C)C)C(=O)N2)c(C(=O)O)c1 (stereo not drawn) [imazamox] | resistant
2 | COC(=O)c1ccccc1S(=O)(=O)NC(=O)N(C)c1nc(C)nc(OC)n1 [tribenuron methyl] | resistant
3 | Cc1cnc(C2=NC(=O)C(C)(C(C)C)N2)c(C(=O)O)c1 (stereo not drawn) [imazapic] | resistant
4 | CC(C)C1(C)N=C(c2nc3ccccc3cc2C(=O)O)NC1=O (stereo not drawn) [imazaquin] | resistant
5 | COC(=O)c1ccccc1S(=O)(=O)NC(=O)Nc1nc(C)cc(C)n1 [sulfometuron methyl] | sensitive
6 | CC(C)C1(C)N=C(c2ncccc2C(=O)O)NC1=O (stereo not drawn) [imazapyr] | resistant
7 | CCS(=O)(=O)c1cccnc1S(=O)(=O)NC(=O)Nc1nc(OC)cc(OC)n1 [rimsulfuron] | sensitive
8 | COc1cc(OC)nc(NC(=O)NS(=O)(=O)c2ncccc2C(=O)N(C)C)n1 [nicosulfuron] | resistant
9 | COC(=O)c1sccc1S(=O)(=O)NC(=O)Nc1nc(C)nc(OC)n1 [thifensulfuron methyl] | resistant
10 | CCOC(=O)c1ccccc1S(=O)(=O)NC(=O)Nc1nc(Cl)cc(OC)n1 [chlorimuron ethyl] | sensitive
11 | COC(=O)c1ccccc1S(=O)(=O)NC(=O)Nc1nc(C)nc(OC)n1 [metsulfuron methyl] | resistant
12 | CCc1cnc(C2=NC(C)(C(C)C)C(=O)N2)c(C(=O)O)c1 (stereo not drawn) [imazethapyr] | resistant
